In patent US20220403001A1, “PDE5 DERIVED REGULATORY CONSTRUCTS AND METHODS OF USE IN IMMUNOTHERAPY” (Obsidian Therapeutics, Inc., priority 2018, published 2022):
Like-named read-outs stand apart in the source and are kept apart here. Values belong to the compound of their own block, whether it stands above or below them.

What was measured:
[1] = target: hPDE5 Y612A (Homo sapiens, UniProt O76074, Y612A); conditions: Y612A ablates hydrogen bonding and hydrophobic bonding potential; Corbin et al. 2006; cited from earlier work
[2] = target: hPDE5 Y612F (Homo sapiens, UniProt O76074, Y612F); conditions: Y612F ablates hydrogen bonding potential; Corbin et al. 2006; cited from earlier work
[3] = approved dose, cited from earlier work
[4] = system: hPDE5 mutants; assay: GFP expression (MFI) by FACS in HEK293 cells expressing hPDE5 constructs
[5] = system: hPDE5 mutants; assay: Immunoblot (AcGFP antibody) of hPDE5-AcGFP constructs in HEK293 cells; assay type: cell-based, human; conditions: compared with wildtype OT-001075
Excerpt: Puro and used as a control.
Cell lysates obtained from hPDE5N construct expressing cells were immunoblotted using the AcGFP antibody (Clonetech, Mountain View, Calif.). Samples were also immunoblotted with the GAPDH antibody to ensure uniform protein loading.

[6] = system: hPDE5 mutants; assay: Western blot of AcGFP/GFP protein levels in HCT 116 cells expressing hPDE5 mutants; assay type: cell-based, human; conditions: 10 μM Vardenafil, 24 hours, HCT 116
Description: Protein expression analysis of the combination mutants was performed in parallel via western blot. […] GAPDH levels were also analyzed to ensure even protein loading.

[7] = target: hPDE5 mutants (Homo sapiens, UniProt O76074); assay: GFP MFI by FACS in HCT116 cells transduced with hPDE5 constructs; assay type: cell-based; conditions: HCT-116
[8] = system: hPDE5 mutants; assay: as above; assay type: cell-based, human; conditions: for MFI / Stabilization ratio / Vardenafil dose response (MFI of GFP): HCT116; for Sildenafil dose response (MFI) / Tadalafil dose response (MFI): HCT 116
[9] = Sildenafil 0.0005 μM, 48 h, HEK293
[10] = Sildenafil 3.33 μM, 48 h, HEK293
[11] = Sildenafil 10 μM, 48 h, HEK293 (dose titration)
[12] = Sildenafil 10 μM, 48 h, HEK293 (time course)
[13] = Vardenafil 0.0005 μM, 48 h, HEK293
[14] = Vardenafil 3.33 μM, 48 h, HEK293
[15] = Vardenafil (10 μM), 48 h, Table 25, cell line not given in table

Compound: CCCc1nn(C)c2c(=O)[nH]c(-c3cc(S(=O)(=O)N4CCN(C)CC4)ccc3OCC)nc12 [Sildenafil]
effect of Y612A mutation on inhibition of hPDE5 catalytic activity by ligand [1]: to a lesser extent
effect of Y612F mutation on inhibition of hPDE5 activity by ligand [2]: increases the inhibition of hPDE5 activity

Compound: OT-001076: hPDE5-F736A AcGFP construct
hPDE5-GFP levels with DMSO treatment (immunoblot) [5]: lower than in the wildtype hPDE5 construct
MFI [4, 9]: 6848
Stabilization ratio [4, 9]: 0.97
MFI [4, 10]: 49220
Stabilization ratio [4, 10]: 7.00
MFI ([4]; Sildenafil 10 μM, 2 h, HEK293): 12088
Stabilization ratio ([4]; Sildenafil 10 μM, 2 h, HEK293): 1.54
MFI ([4]; Sildenafil 10 μM, 4 h, HEK293): 14046
Stabilization ratio ([4]; Sildenafil 10 μM, 4 h, HEK293): 1.77
MFI ([4]; Sildenafil 10 μM, 6 h, HEK293): 16710
Stabilization ratio ([4]; Sildenafil 10 μM, 6 h, HEK293): 2.11
MFI ([4]; Sildenafil 10 μM, 16 h, HEK293): 39029
Stabilization ratio ([4]; Sildenafil 10 μM, 16 h, HEK293): 4.93
MFI ([4]; Sildenafil 10 μM, 24 h, HEK293): 51534
Stabilization ratio ([4]; Sildenafil 10 μM, 24 h, HEK293): 6.51
MFI [4, 11]: 67084
Stabilization ratio [4, 11]: 9.53
MFI [4, 12]: 70811
Stabilization ratio [4, 12]: 8.94
MFI [4, 13]: 11770
Stabilization ratio [4, 13]: 1.04
MFI [4, 14]: 172990
Stabilization ratio [4, 14]: 15.33
MFI ([4]; Vardenafil 10 μM, 48 h, HEK293): 188068
Stabilization ratio ([4]; Vardenafil 10 μM, 48 h, HEK293): 16.66
Stabilization ratio ([4]; Vardenafil (1 μM), 48 h, Table 25, cell line not given in table): 11.52
MFI ([4]; Vardenafil (1 μM), 48 h, Table 25, cell line not given in table (HEK293, HCT-116, SKOV-3)): 110603
MFI [4, 15]: 143351
Stabilization ratio [4, 15]: 14.93

Sildenafil Stabilization ratio ([7]; 10 μM, 48 h): 1.10
Vardenafil Stabilization ratio ([7]; 10 μM, 48 h): 4.26
MFI Sildenafil ([7]; GFP, 10 μM Sildenafil 48 h): 13862
MFI Vardenafil ([7]; GFP, 10 μM Vardenafil 48 h): 53848
Compound: OT-001222: hPDE5 (F736A, D764N) GFP construct
AcGFP protein levels (western blot) [6]: Vardenafil dependent stabilization of AcGFP protein levels
Vardenafil Stabilization ratio ([8]; 10 μM, 48 h, HCT-116): 4.26
MFI DMSO ([8]; GFP, DMSO 48 h, HCT-116): 12633
MFI ([8]; Sildenafil 0.04 μM, 24 h): 8688
Stabilization ratio ([8]; Sildenafil 0.04 μM, 24 h): 0.81
MFI ([8]; Sildenafil 0.5 μM, 4 hours): 5322
Stabilization ratio ([8]; Sildenafil 0.5 μM, 4 hours): 1.64
MFI ([8]; Sildenafil 0.5 μM, 8 hours): 5083
Stabilization ratio ([8]; Sildenafil 0.5 μM, 8 hours): 1.57
MFI ([8]; Sildenafil 0.5 μM, 12 hours): 5122
Stabilization ratio ([8]; Sildenafil 0.5 μM, 12 hours): 1.58
MFI ([8]; Sildenafil 0.5 μM, 16 hours): 5600
Stabilization ratio ([8]; Sildenafil 0.5 μM, 16 hours): 1.73
MFI ([8]; Sildenafil 0.5 μM, 20 hours): 6003
Stabilization ratio ([8]; Sildenafil 0.5 μM, 20 hours): 1.85
MFI ([8]; Sildenafil 0.5 μM, 24 hours): 6144
Stabilization ratio ([8]; Sildenafil 0.5 μM, 24 hours): 1.89
MFI ([8]; Sildenafil 0.5 μM, 48 hours): 6682
Stabilization ratio ([8]; Sildenafil 0.5 μM, 48 hours): 2.06
MFI ([8]; Sildenafil 0.5 μM, 72 hours): 6906
Stabilization ratio ([8]; Sildenafil 0.5 μM, 72 hours): 2.13
MFI ([8]; Sildenafil 3.33 μM, 24 h): 10384
Stabilization ratio ([8]; Sildenafil 3.33 μM, 24 h): 0.97
MFI ([8]; Sildenafil 5 μM, 4 hours): 6314
Stabilization ratio ([8]; Sildenafil 5 μM, 4 hours): 1.88
MFI ([8]; Sildenafil 5 μM, 8 hours): 7021
Stabilization ratio ([8]; Sildenafil 5 μM, 8 hours): 2.09
MFI ([8]; Sildenafil 5 μM, 12 hours): 9199
Stabilization ratio ([8]; Sildenafil 5 μM, 12 hours): 2.73
MFI ([8]; Sildenafil 5 μM, 16 hours): 12280
Stabilization ratio ([8]; Sildenafil 5 μM, 16 hours): 3.65
MFI ([8]; Sildenafil 5 μM, 20 hours): 13280
Stabilization ratio ([8]; Sildenafil 5 μM, 20 hours): 3.95
MFI ([8]; Sildenafil 5 μM, 24 hours): 16705
Stabilization ratio ([8]; Sildenafil 5 μM, 24 hours): 4.97
MFI ([8]; Sildenafil 5 μM, 48 hours): 22061
Stabilization ratio ([8]; Sildenafil 5 μM, 48 hours): 6.56
MFI ([8]; Sildenafil 5 μM, 72 hours): 26995
Stabilization ratio ([8]; Sildenafil 5 μM, 72 hours): 8.02
MFI ([8]; Sildenafil 10 μM, 24 h): 13263
Stabilization ratio ([8]; Sildenafil 10 μM, 24 h): 1.24
Sildenafil dose response (MFI) ([8]; Sildenafil 11.11 μM, 48 h): 5675
MFI ([8]; Sildenafil 30 μM, 24 h): 26837
Stabilization ratio ([8]; Sildenafil 30 μM, 24 h): 2.5
Sildenafil dose response (MFI) ([8]; Sildenafil 33.33 μM, 48 h): 9677
Sildenafil dose response (MFI) ([8]; Sildenafil 100.00 μM, 48 h): 37494
Destabilizing mutation co-efficient ratio ([8]; Sildenafil dose response experiment (Table 27), vs OT-001216): 0.17
Vardenafil dose response (MFI of GFP) ([8]; Table 33, 0.01 μM, 48 h): 4444
Vardenafil dose response (MFI of GFP) ([8]; Table 33, 0.04 μM, 48 h): 4934
Vardenafil dose response (MFI of GFP) ([8]; Table 33, 3.33 μM, 48 h): 10516
Vardenafil dose response (MFI of GFP) ([8]; Table 33, 10.00 μM, 48 h): 24927
MFI ([8]; Tadalafil 11.11 μM, 24 h): 13789
Stabilization ratio ([8]; Tadalafil 11.11 μM, 24 h): 2.28
Tadalafil dose response (MFI) ([8]; Tadalafil 11.11 μM, 48 h): 8299
MFI ([8]; Tadalafil 33.33 μM, 24 h): 20464
Stabilization ratio ([8]; Tadalafil 33.33 μM, 24 h): 3.39
Tadalafil dose response (MFI) ([8]; Tadalafil 33.33 μM, 48 h): 15831
MFI ([8]; Tadalafil 100 μM, 24 h): 23542
Stabilization ratio ([8]; Tadalafil 100 μM, 24 h): 3.9
Tadalafil dose response (MFI) ([8]; Tadalafil 100.00 μM, 48 h): 31020
Destabilizing mutation coefficient ([8]; Tadalafil dose response experiment (Table 29), vs OT-001216): 0.17
MFI ([8]; Vardenafil 0.04 μM, 24 h): 6174
Stabilization ratio ([8]; Vardenafil 0.04 μM, 24 h): 0.80
MFI ([8]; Vardenafil 3.33 μM, 24 h): 29520
Stabilization ratio ([8]; Vardenafil 3.33 μM, 24 h): 3.84
MFI ([8]; Vardenafil 10 μM, 24 h): 29971
Stabilization ratio ([8]; Vardenafil 10 μM, 24 h): 3.90
MFI ([8]; Vardenafil 30 μM, 24 h): 46109
Stabilization ratio ([8]; Vardenafil 30 μM, 24 h): 5.99
Destabilizing mutation coefficient ([8]; Vardenafil dose response experiment (Table 28), vs OT-001216): 0.12
Destabilizing mutation coefficient ([8]; vs wildtype OT-001216, absence of ligand, HCT-116): 0.19
